Read-outs that look alike come from different tables or passages of the source.
Key:
Assay in all cases: Colony forming assay, effect of EGF on cisplatin sensitivity
Type in all cases: cell-based, human
[1] = tested on: A549 non-small cell lung cancer cells
Text: (§1) The following cell lines were used in these studies: 2008 human ovarian carcinoma (Disaia, et al., Am. J. Obstet. Gynecol. 114:978 (1972)), COLO 316 human ovarian carcinoma (Woods et al., Cancer Res. 39:4449 (1979)), a DDP resistant variant 2008/C13*, derived from the parent 2008 cell line (Andrews, et al., Cancer Res. 45:6250 (1985)), A549 non-small cell lung cancer (Lieber et al., Int. J. Cancer 17:62 (1976)), NCI-H520 squamous cell lung cancer (Brower et al., Cancer Res. 46: 798 (1986)), NCI-H596 adenosquamous lung cancer (Banks-Schlegel et al., Cancer Res. 45: 1187 (1985)), UMC 31 small cell lung cancer cells (Graziano et al., Genes, Chromosomes and Cancer 3: 283 (1991)), GLC4 small cell lung cancer cells (Zijlstra et al., Cancer Res. 47: 1780 (1987)), UMCC10b head and neck cancer cells (Krause et al., Arch. Otolayngol. 107: 703 (1981)), 5637 bladder cancer cells (Fogh et al., J. Natl. Cancer Inst. 58: 209 (1977)), MIA PaCa-2 pancreatic cancer cells (Yunis et al., Int. J. Cancer 19:128 (1977)), Du 145 prostate cancer (Mickey Cancer Res. 37: 4049 (1977)) , COLO 205 colon cancer (Semple et al., Cancer Res. 38:1345 (1978)), KB-3-1 cervix cancer (Akiyama et al., Somat. Cell Mol. Genet. 11: 117 (1985)) , MCF-7 breast cancer (Soule et al., J. Natl. Cancer Inst. 51:1409 (1973)), A431 epidermoid carcinoma of the skin (Giard et al., J. Natl. Cancer Inst. 51: 1417 (1973)) and T-289 melanoma cells (Taetle et al., Cancer (Philadelphia) 60: 1836 (1987)). The human cell line 2008 was established from a patient with a serous cystadenocarcinoma of the ovary. The 8-fold DDP resistant cell line 2008/C13* was generated by 13 monthly selections with […], followed by chronic exposure to stepwise increasing concentrations of DDP, from 0.25 to 5 uM. A resistant subline, designated 2008/C13*5, was obtained by monthly selections with 1 μM DDP. The cells were grown on tissue culture dishes in a humidified incubator at 37° C. and 5% CO2 atmosphere. Cells were grown in either of the following types of media: RPMI 1640, RPMI 1640 plus HITES buffer, DMEM low glucose, or DMEM high glucose supplemented with 5% to 10% heat inactivated fetal calf serum and 2 mM glutamine.
(§2) Colony forming assays were used to assess the effect of each drug on the sensitivity of various tumor cell lines to cytotoxic agents (Andrews, et al., Chem.-Biol. Interact 65:51-58 (1988)). For assays performed on plastic tissue culture dishes, five ml of suspended cells were plated on 60-mm polystyrene tissue culture dishes (Corning Glass Works, Corning, N.Y.). Cells were allowed to attach overnight, then 10 μl of stock drug solution was added to triplicate plates at each drug concentration. Control plates received diluent alone. After 1 h, the drug-containing medium was aspirated and replaced with drug free medium. Plates were incubated in humidified 5% CO2 air, and after 14 days plates were fixed with methanol and stained with Giemsa. Colonies of over 60 cells were counted macroscopically.
(§3) The drug containing media was removed and cells were resuspended in 5 ml of complete medium containing 0.36% low melting-temperature agarose at 37° C. The cell suspension was mixed well and then aliquotted at 1 ml per dish in triplicate onto prepared 35 mm dishes containing a basement layer of solidified 1% agarose. The cell-containing layer was allowed to solidify at 4° C. for 10 minutes, and the dishes were incubated at 37° C. in humidified 5% CO2. Colonies greater than 125 um were counted after 5 days.
(§4) ^a Dose response curves were determined by colony forming assay. Cell

[2] = tested on: COLO 205 colon cancer cells
Text: as §1, §2, §3, §4

[3] = tested on: Du 145 prostate cancer cells
Text: as §1, §2, §3, §4

[4] = tested on: GLC 4 small cell lung cancer cells
Text: as §1, §2, §3, §4

[5] = tested on: MCF-7 breast cancer cells
Text: as §1, §2, §3, §4

[6] = tested on: MIA PaCa-2 pancreatic cancer cells
Text: as §1, §2, §3, §4

[7] = tested on: T-289 malignant melanoma cells
Text: as §1, §2, §3, §4

[8] = tested on: UMSCC 10b head and neck cancer cells
Text: as §1, §2, §3, §4

[9] = ratio of IC50 in control and EGF-treated cells
[10] = read-out: IC50 in absence of EGF, cisplatin 1 h, no EGF
[11] = read-out: IC50 in presence of EGF, 10 nM EGF and cisplatin concurrently for 1 h

Work on N.N.[Cl][Pt][Cl] [cisplatin] yielded a Dose modifying factor [1, 9] of 2.0, an IC50 ([1]; read-out: IC50 in absence and presence of EGF (single figure printed), 10 nM EGF and cisplatin concurrently for 1 h) of 14.5 µM and a Dose modifying factor [2, 9] of 1.7. It also gave an IC50 [2, 10] of 27.6 µM, an IC50 [2, 11] of 16.5 µM and a Dose modifying factor [3, 9] of 1.5. It also gave an IC50 [3, 10] of 8.52 µM, an IC50 [3, 11] of 5.52 µM and a Dose modifying factor [4, 9] of 0.7. The IC50 [4, 10] was 12.2 µM, the IC50 [4, 11] was 18.2 µM and the Dose modifying factor [5, 9] was 1.0. It also gave an IC50 [5, 10] of 3.82 µM, an IC50 [5, 11] of 3.8 µM and a Dose modifying factor [6, 9] of 1.4. For the same molecule, the IC50 [6, 10] was 7.65 µM, the IC50 [6, 11] was 5.53 µM and the Dose modifying factor [7, 9] was 0.8. It also gave an IC50 [7, 10] of 2.02 µM, an IC50 [7, 11] of 2.49 µM and a Dose modifying factor [8, 9] of 3.8. The IC50 [8, 10] was 6.76 µM and the IC50 [8, 11] was 1.76 µM.

— patent US5597798A, “Taxol and epidermal growth factor used to enhance treatment of ovarian cancer” (The Regents of the University of California, priority 1994, dated 1997)
